# Measurements taken from patent US20080107661A1, “MUC1 and ABL” (Dana-Farber Cancer Institute, Inc., priority 2006, published 2008).
# Legend:
# Type in all cases: cell-based, human
# c-Abl [1] = assay: Nuclear and cytosolic c-Abl in HeLa/vector and HeLa/MUC1 cells after genotoxic agents (subcellular fractionation, immunoblot); settings: 2 hours
# Excerpt: (§1) Cell culture. Human HeLa cervical cancer cells, HCT116/vector (HCT116 colorectal carcinoma cells stably transfected with an empty vector), HCT116/MUC1 (HCT116 colorectal carcinoma cells stably transfected with an expression vector encoding a MUC1 polypeptide), HCT116/MUC1(Y46F) (HCT116 colorectal carcinoma cells stably transfected with an expression vector encoding a mutant MUC1 polypeptide containing an amino acid substitution at position 46 changing a tyrosine (Y) to phenylalanine (F)) colon cancer cells (Ren et al., (2002) J. Biol. Chem. 277: 17616-17622) and 293 cells were cultured in Dulbecco's modified medium with 10% heat-inactivated fetal bovine serum, 100 units/ml penicillin, 100 μg/ml streptomycin and 2 mM L-glutamine. Human ZR-75-1/vector (ZR-75-1 breast cancer cells stably transfected with an empty vector) and ZR-75-1/MUC1siRNA (ZR-75-1 breast cancer cells stably transfected with an expression vector encoding an siRNA specific for MUC1) breast cancer cells (Ren et al., (2004) Cancer Cell 5:163-175) were grown in RPMI1640 medium containing 10% heat-inactivated fetal bovine serum and antibiotics. Cells were treated with 1 μM adriamycin (ADR; Calbiochem), 100 μM cisplatin (CDDP; Sigma) or 10 μM STI571 (Gleevec; Novartis, Basel, Switzerland).
# (§2) Subcellular fractionation. Nuclear fractions were prepared as described (Kharbanda et al., (1996) Cancer Res. 56:3617-3621). Cytosolic fractions were prepared as described (Hill et al., (2004) EMBO J. 23:2134-2145). Cell membrane fractions were prepared with the Plasma Membrane Extraction Kit (BioVision Research Products, Mountain View, Calif.). Mitochondria were purified as described (Ren et al., (2004) Cancer Cell 5:163-175; Ren et al., (2006) Oncogene 25:20-31).
# (§3) Immunoprecipitations and immunoblot analysis. Cell lysates were prepared as described (Kharbanda et al., (1995) Nature 376:785-788); Yoshida et al., (2005) Nat. Cell Biol. 7:278-285). Soluble proteins were incubated with anti-MUC1-N (Kufe et al., (1984) Hybridoma 3:223-232), anti-MUC1-C (Ab5; Neomarker, Montreal, Quebec), anti-Flag (Sigma, St. Louis, Mo.), anti-c-Abl (Ab3; Oncogene, San Diego, Calif.) or anti-14-3-3 (Abcam Inc., Cambridge, Mass.) antibodies for 2 hours at 4° C., followed by precipitation with protein G-Sepharose beads for 1 hour. […] Intensity of the signals was determined by densitometric scanning. Statistical significance was determined by the Student's t-test.
# c-Abl [2] = assay: Nuclear targeting of c-Abl in HCT116/vector, HCT116/MUC1 and mutant cells after CDDP
# Excerpt: as §1, §2, §3
# MUC1-C = assay: Nuclear MUC1-C levels in HCT116/MUC1 cells after CDDP (immunoblot, densitometric scanning); settings: CDDP, 0, 1, 2 and 4 hours, over untreated cells
# Protocol: as §3, with “Subcellular fractionation. Nuclear fractions were prepared as described (Kharbanda et al., (1996) Cancer Res. 56:3617-3621). Cytosolic fractions were prepared as described (Hill et al., (2004) EMBO J. 23:2134-2145). Cell membrane fractions were prepared with the Plasma Membrane Extraction Kit (BioVision Research Products, Mountain View, Calif.). Mitochondria were purified as described (Ren et al., (2004) Cancer Cell 5:163-175; Ren et al., (2006) Oncogene 25:20-31). Immunoprecipitations” for “Immunoprecipitations”
smiles,measurement,setting,value
"[NH2][Pt]([NH2])([Cl])[Cl] [CDDP, cisplatin]",cytosolic c-Abl,"c-Abl [1]; HeLa/vector cells, CDDP",decrease in cytosolic c-Abl
same,nuclear targeting of c-Abl,"c-Abl [1]; HeLa/vector versus HeLa/MUC1 cells, 100 μM CDDP",MUC1 attenuates nuclear targeting of c-Abl
same,CDDP-induced targeting of cytosolic c-Abl to the nucleus,"c-Abl [2]; HCT116/MUC1(Y46F) cells, CDDP, 0, 2 or 4 hours",blocked CDDP-induced targeting of cytosolic c-Abl to the nucleus
same,effect of MUC1(Y60F) on CDDP-induced targeting of c-Abl to the nucleus,"c-Abl [2]; HCT116/MUC1(Y60F) cells, CDDP, 2 and 4 hours",little if any effect
same,nuclear targeting of c-Abl,"c-Abl [2]; HCT116/MUC1 cells, CDDP, 2 and 4 hours",blocked nuclear targeting of c-Abl
same,nuclear targeting of c-Abl,"c-Abl [2]; HCT116/vector cells, CDDP, 2 and 4 hours",c-Abl was targeted to the nucleus
same,increase in nuclear MUC1-C levels,MUC1-C,two-fold
